# Test results taken from publication PMC3835791, “Non-Invasive Imaging of Tumors by Monitoring Autotaxin Activity Using an Enzyme-Activated Near-Infrared Fluorogenic Substrate” (PLoS ONE, 2013).
# Experiments:
# [1] = target: T1, Purified human ATX (Homo sapiens, UniProt Q13822); assay: Michaelis constant of fluorogenic ATX substrates; format: biochemical; conditions: fluorogenic ATX substrate, rate of fluorescence increase at varying substrate concentrations
# T1 construct: purchased Echelon Biosciences, Inc. (Salt Lake City, UT)
# Description: (§1) AR-2 (100 nM) was incubated with the indicated enzyme in buffer containing 50 mM Tris-Cl pH 8.0, 5 mM KCl, 1 mM CaCl2, 1 mM MgCl2, 140 mM NaCl, and 1 mg/mL fatty acid free bovine serum albumin. Reactions were immediately placed in a Spectramax M2 plate reader (Molecular Devices, Sunnyvale, CA) set at 37°C, monitoring fluorescence exciting at 750 nm and emitting at 805 nm over time. Unless otherwise stated, all reactions used 10 nM enzyme, except alkaline phosphatase, which was performed at 0.1 unit/µL.
# (§2) The Michaelis constant (Km) was determined for each compound by measuring the rate of fluorescence increase at varying substrate concentrations using Prism to fit to the Michaelis-Menton equation. Inner filter effects were overcome using previously described methods. The inhibition constant (Ki) for each set of reactions was determined from the IC50 following standard methods.
# [2] = target: T2, human ATX (Homo sapiens, UniProt Q13822); assay: AR-2 reactions with purified enzymes: human ATX; format: biochemical; conditions: AR-2 100 nM, 10 nM enzyme
# T2 construct: purchased Echelon Biosciences, Inc. (Salt Lake City, UT)
# Description: as §1
# [3] = target: T3, mouse ATX (Mus musculus, UniProt Q9R1E6); assay: AR-2 reactions with purified enzymes: mouse ATX; format: biochemical; conditions: AR-2 100 nM, 10 nM enzyme
# T3 construct: purchased R&D Systems (Minneapolis, MN)
# Description: as §1
# [4] = system: human NPP1, human and mouse NPP7, shrimp alkaline phosphatase, human LPLA2 and human INPP4A; assay: AR-2 reactions with purified enzymes homologous to ATX (selectivity panel); format: biochemical; conditions: AR-2 100 nM, 10 nM enzyme (alkaline phosphatase 0.1 unit/µL), versus buffer control
# Description: as §1
# [5] = target: T4, ATX in media from COS-7 cells (Homo sapiens, UniProt Q13822); assay: AR-2 activation by media from COS-7 cells transfected with ATX-encoding plasmid; format: cell-based; conditions: AR-2 1 µM
# T4 construct: expressed in transfected cells; host or cells: COS-7
# Description: COS-7 cells grown in Dulbecco's Modified Eagle Medium (DMEM) supplemented with 10% FBS and penicillin/streptomycin were transfected with human β ATX cDNA inserted into pcDNA DEST40 (Invitrogen, CA) or mock plasmid in DMEM without FBS using TransIT®-2020 transfection reagent (Mirus Bio, WI) according to the manufacturer's protocol.
# (§3) Equal volumes of cell media (COS-7) or conditioned media (MDA-MB-231 or MDA-MB 435) were mixed with buffer to achieve a final concentration of AR-2 (1 µM). All other conditions were as described for purified enzymes.
# [6] = system: MDA-MB-231 orthotopic tumor (ATX activity); assay: In vivo NIRF imaging and ex vivo tissue analysis of mice with orthotopic tumors
# From the text: Animal studies were approved by the Institutional Animal Care and Use Committee (IACUC) of the University of Utah (protocol numbers 10-10016 and 12-05013). Tumors in mice were established as previously described, [41]. Briefly, approximately ten-week old female nude (Nu/Nu) mice (Charles River Laboratories International, Wilmington, MA) were lightly anesthetized with isoflurane and subcutaneously inoculated with MDA-MB-231 cells in the left thoracic mammary glands. Prior to inoculation, cells were suspended in Extracel to make 5×10^7 cells/mL and each mouse received 0.1 mL of Extracel tumor suspension. To reduce auto-fluorescence arising from the feed, mice were switched to specially formulated diet (2920X, Harlan Laboratories, WI) at least two days prior to imaging.
# Six weeks after tumor graft, mice were imaged using AR-2. To visualize tumors, AR-2 was diluted in PBS, filtered through a 0.2 µm porous membrane, and intravenously injected via the lateral vein at 0.5 mg/kg b.w. bolus. The animals were then imaged 48 h after injection with a Pearl Impulse Imager (LI-COR Biosciences, NE) using the 800 nm channel. The fluorescence signals from acquired images were analyzed using Pearl Impulse Software v 2.0 (LI-COR Biosciences) according the manufacturer's protocols. […] ATX-Red dosing, delivery and imaging were unchanged.
# Animals were sacrificed, organs were dissected and weighed, then ex vivo fluorescence was imaged and quantified as previously described. Tumors were immediately frozen until further use. Thawed tumors were homogenized in ice cold buffer containing 10 mM Tris pH 7.4, 200 mM NaCl, 10% glycerin, 5 mM EDTA and 1× Halt protease inhibitor cocktail (Thermo Scientific, Rockford, Il.) at a ratio of 40 mg tumor to 1 mL buffer. Samples were centrifuged at 14,000× g at 4°C. ATX levels were determined by diluting supernatants ten times in RD5-10 and assayed using a Human ENPP-2/Autotaxin ELISA (R&D Systems, Minneapolis, MN) and an Autotaxin Sandwich ELISA (Echelon Biosciences, Inc., Salt Lake City, UT) using the manufacturers' protocol. Total protein levels were determined by the method of Bradford. Statistical significance was compared using a two-tailed t-test using Prism.
# [7] = Pharmacokinetics of AR-2 in plasma after intravenous dosing; format: in vivo, mice
# Description: To investigate preliminary PK of AR-2, female BALB/c mice aged 8–10 wks old (Charles River Laboratories, MA) were used. The animals were allowed to acclimatize to housing at least one week prior to use. At day 0, AR-2 was administered as a single bolus injection through lateral tail vein at a dosage of 1.0 mg/kg b.w. The animals were then lightly anesthetized with isoflurane for blood collection at 0, 0.08, 0.25, 0.5, 1, 2, 4, 6, 24, and 48 h after AR-2 administration. Blood samples were collected in EDTA coated tubes by submandibular bleeding or caudal vena cava (at time of sacrifice) with the maximum number of two blood collections from each animal. The collected blood samples were centrifuged, and the plasma was stored at −20°C until analysis.
# To determine the concentration of AR-2 in plasma, samples were prepared according to the following procedures. Plasma samples were mixed with nine volumes of tert-butanol∶water (7∶1) then centrifuged at 14,000× g to pellet precipitated proteins. The resulting supernatant was frozen and lyophilized. Samples were then reconstituted in cold PBS and subjected to HPLC analysis using a C18 column (Waters, Milford, MA) with a gradient of 5–60% acetonitrile in 50 mM triethylammonium acetate (pH 6.0). Peaks with absorbance at 778 nm were integrated and compared to mouse plasma samples containing known concentrations of AR-2. The resulting AR-2 concentration versus time data were plotted and fitted with a sum of two exponentials to calculate plasma half-life (t1/2) and various pharmacokinetic parameters using the PK package in R Statistics (version 2.15.1).
# [8] = target: T5, ATX in conditioned media from MDA-MB-435 and MDA-MB-231 cells (Homo sapiens, UniProt Q13822); assay: AR-2 activation by conditioned media from cancer cells overexpressing ATX, with and without PF-8380; format: cell-based; conditions: PF-8380 1 µM, conditioned media from MDA-MB-435 or MDA-MB-231 cells, AR-2 1 µM
# T5 construct: host or cells: MDA-MB-231 and MDA-MB-435 (conditioned media concentrated about 40-fold)
# Description: MDA-MB-231 and MDA-MB-435 cells were grown to 80% confluence in Roswell Park Memorial Institute (RPMI) medium supplemented with 10% FBS. Cells were rinsed twice with PBS and grown for approximately 60 h in RPMI supplemented with 1% FBS. Media were centrifuged at 1000× g for 1 min to collect cells. Conditioned media was prepared by concentrating the supernatant ∼40-fold using Amicon Ultra YM30 (Millipore, Billerica, MA).
# as §3
# [9] = target: T1, Purified human ATX; assay: Evaluation of ATX inhibition with fluorogenic substrates (AR-2 or FS-3); format: biochemical; conditions: human ATX 2 nM, 37°C, Ki determined from the IC50
# Description: DMSO was spiked into each reaction mixture to equalize vehicle concentrations. Purified human ATX (2 nM final concentration) was mixed with varying concentrations of inhibitor at 37°C for 10 min, then AR-2 or FS-3 was added to a final concentration of 1 µM. The rates of fluorescence increase were measured for up to 2 h. The initial velocity of fluorescence increase was determined and normalized to control reactions. The IC50 of each compound was calculated by fitting a standard curve using a sigmoidal dose-response (variable slope) nonlinear regression curve using GraphPad Prism (version 5.03).
# as §2
# [10] = MDA-MB-231 xenografts, 48 h after AR-2 dosing, ex vivo
smiles,measurement,setting,value
CC1(C)C(/C=C/C2=C(Oc3ccc(S(=O)(=O)O)cc3)C(=C/C=C3/N(CCCCS(=O)(=O)O)c4ccc(S(=O)(=O)[O-])cc4C3(C)C)/CCC2)=[N+](CCCCCC(=O)NCCCCCC(=O)OC[C@@H](O)COP(=O)(O)OCCNC(=O)CCOCCOCCOCCOCCNC(=O)CCCCCN2/C(=C/C=C3\CCCC(/C=C/C4=[N+](CCCS(=O)(=O)O)c5ccc(N(CCCS(=O)(=O)O)CCCS(=O)(=O)O)cc5C4(C)C)=C3Cl)C(C)(C)c3c2ccc2cc(S(=O)(=O)[O-])ccc32)c2ccc(S(=O)(=O)O)cc21 [AR-2],Km,[1],0.66 ± 0.05 µM
same,activation of AR-2 fluorescence by human ATX,[2],activated AR-2 with similar efficiencies
same,activation of AR-2 fluorescence by mouse ATX,[3],activated AR-2 with similar efficiencies
same,activation of AR-2 fluorescence by related enzymes,[4],none of the related enzymes tested generated a fluorescence response above buffer control
same,activation of AR-2 by media from ATX-transfected versus mock-transfected COS-7 cells,[5],"media from ATX-transfected, but not mock-transfected, cells activated AR-2"
same,NIRF signal in excised tumors compared to most other organs,[6]; [10],strongly elevated
same,NIRF signal in kidneys and liver,[6]; [10],Moderate signals
same,NIRF signal in stomach,[6]; [10],Modest fluorescence
same,apparent volume of distribution (Vd) in 20 g mouse,[7]; 20 g mouse,8.6 mL
same,fraction of AR-2 eliminated,[7]; 42 h after dosing (5 half-lives),approximately 97%
same,half-life of first phase of bi-exponential plasma decrease,"[7]; BALB/c mice, 1.0 mg/kg i.v. bolus, bi-exponential fit, first phase",18 min
same,apparent volume of distribution (Vd),"[7]; mice, i.v.","432 mL/kg, b.w."
same,apparent volume of distribution as share of body weight,"[7]; mice, i.v.",~43 % of body weight
"O=C(CCN1CCN(C(=O)OCc2cc(Cl)cc(Cl)c2)CC1)c1ccc2[nH]c(=O)oc2c1 [PF-8380, reference compound]",rate of AR-2 fluorescence signal generation in conditioned media with inhibitor,[8],dramatically reduced
same,"AR-2 fluorescence signals in excised tumors normalized to protein, inhibitor-treated versus vehicle-treated mice","[6]; PF-8380 30 mg/kg single oral gavage 20 min prior to AR-2 injection, MDA-MB-231 tumors, P<0.001",significantly reduced
CCCCCCCCCCCCCC(=O)Nc1ccc(CP(=O)(O)O)cc1 [S32826],Ki,[9]; ATX substrate AR-2 (1 µM),1.6 ± 1.9 nM
same,Ki,[9]; ATX substrate FS-3 (1 µM),5.5 ± 3.3 nM
